The target in one test is T1, Protein skinhead-1 (Caenorhabditis elegans, UniProt P34707).
T1 sequence (P34707 whole entry): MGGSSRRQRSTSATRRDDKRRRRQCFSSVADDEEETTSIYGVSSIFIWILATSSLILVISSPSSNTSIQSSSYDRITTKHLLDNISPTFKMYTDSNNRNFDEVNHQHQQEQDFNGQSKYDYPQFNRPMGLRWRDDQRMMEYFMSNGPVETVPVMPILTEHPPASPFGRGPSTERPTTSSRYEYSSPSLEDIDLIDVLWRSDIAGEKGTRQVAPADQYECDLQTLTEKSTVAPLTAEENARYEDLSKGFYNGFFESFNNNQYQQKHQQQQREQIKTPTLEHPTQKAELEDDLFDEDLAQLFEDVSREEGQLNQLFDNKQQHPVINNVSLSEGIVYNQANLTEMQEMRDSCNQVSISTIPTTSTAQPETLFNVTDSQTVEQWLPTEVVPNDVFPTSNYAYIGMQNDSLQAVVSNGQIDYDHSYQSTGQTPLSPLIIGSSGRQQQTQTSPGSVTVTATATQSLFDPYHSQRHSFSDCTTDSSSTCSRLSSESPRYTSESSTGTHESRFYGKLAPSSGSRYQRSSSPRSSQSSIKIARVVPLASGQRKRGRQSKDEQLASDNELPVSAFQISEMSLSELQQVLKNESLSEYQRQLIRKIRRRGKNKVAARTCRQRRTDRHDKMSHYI
The test is classed as functional.

Test [1] can be described thus: reduction of Shn3 3'UTR-driven luciferase in osteoblasts – cell-based, Clone20 osteoblasts, firefly luciferase, cherry-picked, dose response (AID 624132).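 Note: firefly luciferase luminescence from reporter carrying the Shn3 3'UTR in osteoblasts.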 The format is functional.
Test [2] in a line: luciferase reporter signal suppression in cells – H4 neuroglioma cells, luminescence, dose response (AID 1990). The test is classed as functional, cell-based.
The nature of test [3]: alpha-synuclein stem-loop luciferase translation blockers – H4 neuroglioma cells, luminescence, confirmation (AID 1988). The format is functional, cell-based.
Test [4] in a line: Luminescence Cell-Based Dose Retest to Confirm Inhibitors of Cancer Stem Cells. [Related pubchem assays (depositor defined):AID2717, AID2721]. To be noted: Homo sapiens. The test is classed as functional.
The target in another test is Cytochrome P450 3A4 (Homo sapiens, UniProt P08684).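 Note: CYP3A4 tested as one member of a cytochrome P450 panel screen.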
Chain of Cytochrome P450 3A4 (P08684 whole entry): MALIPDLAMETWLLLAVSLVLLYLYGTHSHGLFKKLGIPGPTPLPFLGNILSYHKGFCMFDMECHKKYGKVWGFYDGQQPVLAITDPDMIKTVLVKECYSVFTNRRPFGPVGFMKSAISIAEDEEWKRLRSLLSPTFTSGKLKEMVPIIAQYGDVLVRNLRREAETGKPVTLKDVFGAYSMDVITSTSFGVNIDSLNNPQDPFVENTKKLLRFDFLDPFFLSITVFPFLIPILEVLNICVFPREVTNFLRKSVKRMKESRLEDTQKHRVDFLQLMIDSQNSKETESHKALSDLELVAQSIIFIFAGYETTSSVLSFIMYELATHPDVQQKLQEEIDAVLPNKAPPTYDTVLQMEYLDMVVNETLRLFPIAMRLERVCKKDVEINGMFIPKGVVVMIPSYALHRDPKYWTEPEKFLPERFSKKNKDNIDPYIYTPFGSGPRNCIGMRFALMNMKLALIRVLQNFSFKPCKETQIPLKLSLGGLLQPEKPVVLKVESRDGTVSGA
Test [5] is described as follows: viability of uninfected HEp-2 cells – cell-based, HTS, cytotoxicity control for RSV inhibitor project, dose response (AID 2410). To be noted: human respiratory syncytial virus. The format is functional.
Test [6] concerns the target T2, Replicative DNA helicase DnaB (Mycobacterium tuberculosis, UniProt P9WMR3).
T2 sequence (P9WMR3 whole entry): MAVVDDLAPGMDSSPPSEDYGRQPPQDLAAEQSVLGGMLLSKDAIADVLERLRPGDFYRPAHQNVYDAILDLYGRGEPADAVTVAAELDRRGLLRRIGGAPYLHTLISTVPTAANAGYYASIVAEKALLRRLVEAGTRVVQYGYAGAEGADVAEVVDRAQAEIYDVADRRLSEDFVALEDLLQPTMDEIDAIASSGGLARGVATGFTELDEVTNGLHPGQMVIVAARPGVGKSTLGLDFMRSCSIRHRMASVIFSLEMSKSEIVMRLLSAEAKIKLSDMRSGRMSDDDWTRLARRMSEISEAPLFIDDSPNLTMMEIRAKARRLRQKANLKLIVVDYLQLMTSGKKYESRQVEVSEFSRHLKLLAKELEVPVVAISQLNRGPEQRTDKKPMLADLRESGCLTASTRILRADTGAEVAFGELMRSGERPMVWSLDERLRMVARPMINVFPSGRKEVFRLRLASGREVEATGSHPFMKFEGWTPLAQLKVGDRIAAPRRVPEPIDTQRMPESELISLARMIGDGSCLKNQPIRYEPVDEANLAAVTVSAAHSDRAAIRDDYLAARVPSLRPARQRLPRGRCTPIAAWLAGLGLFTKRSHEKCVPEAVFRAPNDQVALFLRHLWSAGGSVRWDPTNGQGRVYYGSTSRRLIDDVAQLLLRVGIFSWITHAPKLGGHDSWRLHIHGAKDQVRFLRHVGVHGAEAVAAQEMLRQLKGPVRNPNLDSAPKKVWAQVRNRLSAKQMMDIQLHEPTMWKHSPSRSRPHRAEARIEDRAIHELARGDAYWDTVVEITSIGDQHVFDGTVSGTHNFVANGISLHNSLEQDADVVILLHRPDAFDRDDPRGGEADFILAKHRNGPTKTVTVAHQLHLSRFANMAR
Briefly: DnaB intein splicing inhibitors, dose response, biochemical, cell-free fluorescence (AID 449749). The test is classed as functional.

The target in another test is T3, Protein RecA (Mycobacterium tuberculosis, UniProt P9WHJ3).
T3 sequence (P9WHJ3 whole entry): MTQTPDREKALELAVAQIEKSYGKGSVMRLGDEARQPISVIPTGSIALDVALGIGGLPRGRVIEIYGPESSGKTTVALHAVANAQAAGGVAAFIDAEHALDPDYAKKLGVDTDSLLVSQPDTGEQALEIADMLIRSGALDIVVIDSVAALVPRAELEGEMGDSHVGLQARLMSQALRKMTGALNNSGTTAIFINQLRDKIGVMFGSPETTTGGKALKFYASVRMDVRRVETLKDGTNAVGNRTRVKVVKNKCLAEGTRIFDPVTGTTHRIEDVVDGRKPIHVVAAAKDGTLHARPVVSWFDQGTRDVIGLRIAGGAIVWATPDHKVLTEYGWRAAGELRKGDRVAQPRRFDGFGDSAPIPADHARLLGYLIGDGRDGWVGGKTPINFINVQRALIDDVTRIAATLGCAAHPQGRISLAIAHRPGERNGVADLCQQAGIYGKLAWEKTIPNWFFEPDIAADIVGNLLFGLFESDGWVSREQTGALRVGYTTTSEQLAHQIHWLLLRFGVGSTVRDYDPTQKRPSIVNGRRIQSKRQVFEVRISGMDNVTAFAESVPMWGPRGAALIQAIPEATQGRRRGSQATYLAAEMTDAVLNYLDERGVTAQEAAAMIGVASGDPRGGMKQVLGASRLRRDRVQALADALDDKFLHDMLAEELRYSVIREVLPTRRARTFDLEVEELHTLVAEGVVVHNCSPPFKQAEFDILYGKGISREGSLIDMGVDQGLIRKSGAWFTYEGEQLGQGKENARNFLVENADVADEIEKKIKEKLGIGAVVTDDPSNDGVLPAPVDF
Nature of the test: Fluorescence Cell-Free Homogeneous Dose Retest to Identify Inhibitors of RecA-Intein Splicing Activity. [Related pubchem assays (depositor defined):AID2097, AID2223, AID489010, AID492950]. The test is classed as functional.

Test [7] has as its target T4, Heat shock factor protein 1 (Mus musculus, UniProt P38532).
T4 sequence (P38532 whole entry): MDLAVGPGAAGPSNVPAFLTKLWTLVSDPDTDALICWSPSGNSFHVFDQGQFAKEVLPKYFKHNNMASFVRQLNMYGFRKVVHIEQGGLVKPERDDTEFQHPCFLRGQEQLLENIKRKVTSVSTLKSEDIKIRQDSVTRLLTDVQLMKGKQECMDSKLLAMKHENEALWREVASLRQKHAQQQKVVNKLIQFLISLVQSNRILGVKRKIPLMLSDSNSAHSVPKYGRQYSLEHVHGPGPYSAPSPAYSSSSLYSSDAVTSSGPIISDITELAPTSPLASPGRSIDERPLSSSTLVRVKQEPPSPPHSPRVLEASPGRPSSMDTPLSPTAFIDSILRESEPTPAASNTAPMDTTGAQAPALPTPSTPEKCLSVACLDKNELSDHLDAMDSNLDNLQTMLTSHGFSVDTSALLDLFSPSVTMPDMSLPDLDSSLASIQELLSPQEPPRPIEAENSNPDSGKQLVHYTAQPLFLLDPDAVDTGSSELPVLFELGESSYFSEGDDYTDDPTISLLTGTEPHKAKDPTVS
Nature of the test: decrease of HSF1-responsive luciferase luminescence – cell-based, NIH3T3, dose retest, confirmation (AID 2382).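 Note: NIH3T3 fibroblasts with HSF1-driven luciferase reporter stressed by proteasome inhibitor MG132; luminescence from HSF1-driven luciferase expression after 8 hours of MG132 stress.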 The test is classed as functional.

Test [8] addresses T5, Calpain-2 catalytic subunit (Sus scrofa, UniProt P43367).
T5 sequence (P43367 whole entry): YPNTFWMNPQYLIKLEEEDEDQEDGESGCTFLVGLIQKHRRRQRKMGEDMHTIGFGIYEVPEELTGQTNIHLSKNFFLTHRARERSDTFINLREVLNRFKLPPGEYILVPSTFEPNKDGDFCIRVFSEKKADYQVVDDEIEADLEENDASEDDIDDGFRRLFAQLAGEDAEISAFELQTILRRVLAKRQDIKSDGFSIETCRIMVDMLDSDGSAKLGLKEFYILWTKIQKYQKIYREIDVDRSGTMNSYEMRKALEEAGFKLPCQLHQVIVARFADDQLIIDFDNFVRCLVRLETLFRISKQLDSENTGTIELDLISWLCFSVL
Nature of the test: m-calpain protease blockers, concentration series – biochemical, fluorogenic peptide substrate, dose response (AID 1420). The test is classed as functional.

The source made the active and inactive calls.

Regarding `CCCOC(=O)c1cc(O)nc2ccccc12`, the IC50 on Protein skinhead-1 was > 100 µM (inactive).
As for `CCN1CCN(Cc2ccc(NC(=O)c3cc(NC(=O)c4cc5cccc(OC)c5o4)cc(OC)c3)cc2C(F)(F)F)CC1`, in test [1], the half-maximal activity concentration (AC50) is 10.2 µM (active).
For the compound `COc1ccc(NC(=O)c2cccc(N3C(=O)c4ccc(C(=O)Nc5ccc(OC)c(O)c5)cc4C3=O)c2)cc1O`, the values for the EC50 in [2] and in test [3] were 15 µM (active) and 13.4 µM (active), respectively.
Turning to `CCOC(=O)CN1CC23C=CC(O2)C(C(=O)NCc2cccs2)C3C1=O` (centres undefined), the IC50 on Protein skinhead-1 was > 100 µM (inactive).
Still for that read-out and setting: the result for `O=C(Nc1ccc(-c2noc(CCc3ccccc3)n2)cc1)c1ccco1` reads > 100 µM (inactive); that for `Fc1ccccc1/C=C/c1ccc2ccccc2n1`, 19.2 µM (active).
As for `c1ccc(CSc2ncnc3ccccc23)cc1`, at Protein skinhead-1, the concentration for half-maximal inhibition (IC50) is 36.1 µM (active).
Consider `COC(=O)c1c(NC(=O)c2ccco2)sc2c1CCC2`, for which the IC50 on Protein skinhead-1 was > 100 µM (inactive). Besides, the half-maximal activity concentration (AC50) in [4] is 68.2 µM (active); at Cytochrome P450 3A4, 39.8 µM (inconclusive).
For the compound `O=[N+]([O-])c1cccc2ccc(/C=C/c3ccc(Cl)cc3)nc12`, at Protein skinhead-1, the IC50 was > 100 µM (inactive). Besides, the CC50 in test [5] was 20 µM (active).
Take `Cc1cc(C)c2c(c1)-c1c(ssc1=S)C(C)(C)N2C(=O)CSc1nncn1C`: the half-maximal activity concentration (AC50) in test [6] was 5.32 µM (active). At Protein RecA, the concentration for a half-maximal effect (EC50) was 8.17 µM (active).
Take `Cn1cc([C@@H]2C[C@H]3CN(Cc4cccc(Cl)c4)C(=O)[C@]34CCCN24)c2ccccc21`: the IC50 on Protein skinhead-1 was > 100 µM (inactive).
As to `CC1CCCCN1S(=O)(=O)c1ccc(C(=O)Nc2sccc2C(N)=O)cc1` (centres undefined), the EC50 in test [7] is listed as > 195 µM (not active). In addition, the IC50 at Protein skinhead-1 was > 100 µM (inactive). For the same compound, in [5], the CC50 is 19.2 µM (active).
For `CCCCOC(=O)Nc1ccc(N2CCCCC2)cc1`, on Protein skinhead-1, the IC50 was 10.6 µM (active).
Regarding `CCCNC(=O)CCn1nc(-c2ccc(Cl)cc2)c2ccccc2c1=O`, the results for the EC50 in test [2] and in test [3] were 18.5 µM (active) and > 120 µM (not active), respectively.
With `CC(C)CS(=O)(=O)C1=NSC2=NC(=O)/C(=C\c3ccc(OC(=O)c4ccco4)cc3)C(=N)N21`, the AC50 in test [6] was > 380 µM (inactive). Moreover, the EC50 at Protein RecA was 13.8 µM (active).
For the compound `COc1nc(-c2ccccc2)nnc1-c1ccccc1`, the IC50 at Protein skinhead-1 is 23 µM (active).
As for `O=[N+]([O-])c1ccc(NCc2ccc(Cl)cc2)nc1`, the figures for the IC50 (at Protein skinhead-1; in test [8]) were 32.1 µM (active) and 12.6 µM (not active), respectively.
Regarding `CC(Oc1ccc(F)cc1)C(=O)Oc1ccc(N(C)S(=O)(=O)c2ccccc2)cc1` (centres undefined), in [6], the AC50 was 0.725 µM (active). At Protein RecA, the EC50 is 58.5 µM (active).
For `CCc1n[nH]c2c1C1(CCN(C(=O)c3ccccc3)CC1)C(C#N)=C(N)O2`, in that order: 24.6 µM (active) and 4.3 µM (active).
In the same order, the values of `Cc1cccc(C(=O)c2cnc3ccccc3c2-c2ccccc2)c1` are 4.79 µM (active) and 22.8 µM (active).
Take `CCOC(=O)c1ccc(-n2[nH]c(-c3ccccc3)cc2=O)cc1`: the figures for the half-maximal effective concentration (EC50) (in [7]; at Protein RecA) were > 195 µM (not active) and 2.25 µM (active), respectively. Besides, the AC50 in test [4] is 5.35 µM (active); in [6] it was 3.43 µM (active).
For `CCOC(=O)c1cnc(N)nc1C(F)(F)F`, the AC50 in test [6] was > 380 µM (inactive). For the same compound, the EC50 on Protein RecA is > 380 µM (inactive).

Usually IC50 stands for the midpoint of a concentration-inhibition curve. One may read the AC50 as the concentration giving half of the maximal activity seen. Usually EC50 stands for the concentration that produces a half-maximal response. The CC50 is the concentration that lowers cell viability or growth by half.
